Source: the supplement of paper PMC10307832

How the values were obtained:
Test in all cases: relative viability (nuclei count vs DMSO), 5 days (fraction); higher = more cells survive
FH535 = compound: CC1=C(C=CC(=C1)[N+](=O)[O-])NS(=O)(=O)C2=C(C=CC(=C2)Cl)Cl [FH535]
How it was run: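 After an overnight hold at 37 °C, lung cancer cell lines in 1536-well plates were pinned with five library-drug doses (not always all listed), each √10 from the next, on vehicle-anchored plates. The cells stayed 5 days without fresh medium, then a one-step fix, permeabilisation and Hoechst stain preceded 4× imaging and MetaXpress nuclear counts. A plate passed only with control CV under 25% and at least one doubling. Viability is the median, over plates, of treated-well nuclei relative to vehicle-well nuclei.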

FH535 + Bortezomib = compound: CC1=C(C=CC(=C1)[N+](=O)[O-])NS(=O)(=O)C2=C(C=CC(=C2)Cl)Cl [FH535] + CC(C)C[C@H](NC(=O)[C@H](Cc1ccccc1)NC(=O)c1cnccn1)B(O)O [Bortezomib] (partner 0.002 µM)
How it was run: (§1)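 Relative viability is defined as nuclei in treated wells over nuclei in vehicle wells. Duplicate plates were run and medians reported. Lung cancer cell lines in 1536-well plates were dosed by pin tool one day after seeding, with one drug or with a fixed anchor-drug dose plus five library-drug doses (not always all listed) in √10 steps, and nuclei were counted after 5 days.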

FH535 + Pictilisib = compound: CC1=C(C=CC(=C1)[N+](=O)[O-])NS(=O)(=O)C2=C(C=CC(=C2)Cl)Cl [FH535] + CS(=O)(=O)N1CCN(Cc2cc3nc(-c4cccc5[nH]ncc45)nc(N4CCOCC4)c3s2)CC1 [Pictilisib] (partner 1 µM)
How it was run: as §1

FH535 + Navitoclax = compound: CC1=C(C=CC(=C1)[N+](=O)[O-])NS(=O)(=O)C2=C(C=CC(=C2)Cl)Cl [FH535] + CC1(C)CCC(c2ccc(Cl)cc2)=C(CN2CCN(c3ccc(C(=O)NS(=O)(=O)c4ccc(N[C@H](CCN5CCOCC5)CSc5ccccc5)c(S(=O)(=O)C(F)(F)F)c4)cc3)CC2)C1 [Navitoclax] (partner 0.5 µM)
How it was run: as §1

FH535 + Foretinib = compound: CC1=C(C=CC(=C1)[N+](=O)[O-])NS(=O)(=O)C2=C(C=CC(=C2)Cl)Cl [FH535] + COc1cc2c(Oc3ccc(NC(=O)C4(C(=O)Nc5ccc(F)cc5)CC4)cc3F)ccnc2cc1OCCCN1CCOCC1 [Foretinib] (partner 0.25 µM)
How it was run: as §1

FH535 + Olaparib = compound: CC1=C(C=CC(=C1)[N+](=O)[O-])NS(=O)(=O)C2=C(C=CC(=C2)Cl)Cl [FH535] + O=C(c1cc(Cc2n[nH]c(=O)c3ccccc23)ccc1F)N1CCN(C(=O)C2CC2)CC1 [Olaparib] (partner 8 µM)
How it was run: as §1

FH535 + Lapatinib = compound: CC1=C(C=CC(=C1)[N+](=O)[O-])NS(=O)(=O)C2=C(C=CC(=C2)Cl)Cl [FH535] + CS(=O)(=O)CCNCc1ccc(-c2ccc3ncnc(Nc4ccc(OCc5cccc(F)c5)c(Cl)c4)c3c2)o1 [Lapatinib] (partner 2 µM)
How it was run: as §1

FH535 + Crizotinib = compound: CC1=C(C=CC(=C1)[N+](=O)[O-])NS(=O)(=O)C2=C(C=CC(=C2)Cl)Cl [FH535] + C[C@@H](Oc1cc(-c2cnn(C3CCNCC3)c2)cnc1N)c1c(Cl)ccc(F)c1Cl [Crizotinib] (partner 1 µM)
How it was run: as §1

FH535 + Linsitinib = compound: CC1=C(C=CC(=C1)[N+](=O)[O-])NS(=O)(=O)C2=C(C=CC(=C2)Cl)Cl [FH535] + C[C@]1(O)C[C@@H](c2nc(-c3ccc4ccc(-c5ccccc5)nc4c3)c3c(N)nccn32)C1 [Linsitinib] (partner 1 µM)
How it was run: as §1

FH535 + Alpelisib = compound: CC1=C(C=CC(=C1)[N+](=O)[O-])NS(=O)(=O)C2=C(C=CC(=C2)Cl)Cl [FH535] + Cc1nc(NC(=O)N2CCC[C@H]2C(N)=O)sc1-c1ccnc(C(C)(C)C(F)(F)F)c1 [Alpelisib] (partner 2 µM)
How it was run: as §1

In the case of NCI-H1299, the relative viability (FH535; 0.04 µM) is reported as 1.01, the relative viability (FH535; 0.1265 µM) is reported as 1.01 and the relative viability (FH535; 0.4 µM) is reported as 1.02. The relative viability (FH535; 1.265 µM) was 0.932, the relative viability (FH535 + Bortezomib; first compound 0.04 µM) was 1.03 and the relative viability (FH535 + Bortezomib; first compound 0.1265 µM) was 1.03. It also gave a relative viability (FH535 + Bortezomib; first compound 0.4 µM) of 1.07, a relative viability (FH535 + Bortezomib; first compound 1.265 µM) of 0.809 and a relative viability (FH535 + Pictilisib; first compound 0.04 µM) of 0.736. For the same cell line, the relative viability (FH535 + Pictilisib; first compound 0.1265 µM) was 0.8, the relative viability (FH535 + Pictilisib; first compound 0.4 µM) was 0.772 and the relative viability (FH535 + Pictilisib; first compound 1.265 µM) was 0.712. For the same cell line, the relative viability (FH535 + Navitoclax; first compound 0.04 µM) was 1.04, the relative viability (FH535 + Navitoclax; first compound 0.1265 µM) was 1.07 and the relative viability (FH535 + Navitoclax; first compound 0.4 µM) was 1.08. The relative viability (FH535 + Navitoclax; first compound 1.265 µM) was 0.954, the relative viability (FH535 + Foretinib; first compound 0.04 µM) was 1.12 and the relative viability (FH535 + Foretinib; first compound 0.1265 µM) was 1.07. It also gave a relative viability (FH535 + Foretinib; first compound 0.4 µM) of 1.12, a relative viability (FH535 + Foretinib; first compound 1.265 µM) of 1.03 and a relative viability (FH535 + Olaparib; first compound 0.04 µM) of 1.01. The relative viability (FH535 + Olaparib; first compound 0.1265 µM) was 1.03, the relative viability (FH535 + Olaparib; first compound 0.4 µM) was 0.973 and the relative viability (FH535 + Olaparib; first compound 1.265 µM) was 0.777. For the same cell line, the relative viability (FH535 + Lapatinib; first compound 0.04 µM) was 0.979, the relative viability (FH535 + Lapatinib; first compound 0.1265 µM) was 0.947 and the relative viability (FH535 + Lapatinib; first compound 0.4 µM) was 0.963. The relative viability (FH535 + Lapatinib; first compound 1.265 µM) was 0.76, the relative viability (FH535 + Crizotinib; first compound 0.04 µM) was 1 and the relative viability (FH535 + Crizotinib; first compound 0.1265 µM) was 0.932. The relative viability (FH535 + Crizotinib; first compound 0.4 µM) was 0.966, the relative viability (FH535 + Crizotinib; first compound 1.265 µM) was 0.876 and the relative viability (FH535 + Linsitinib; first compound 0.04 µM) was 0.98. It also gave a relative viability (FH535 + Linsitinib; first compound 0.1265 µM) of 0.978, a relative viability (FH535 + Linsitinib; first compound 0.4 µM) of 0.957 and a relative viability (FH535 + Linsitinib; first compound 1.265 µM) of 0.927. The relative viability (FH535 + Alpelisib; first compound 0.04 µM) was 1.05, the relative viability (FH535 + Alpelisib; first compound 0.1265 µM) was 0.983 and the relative viability (FH535 + Alpelisib; first compound 0.4 µM) was 1.05. For the same cell line, the relative viability (FH535 + Alpelisib; first compound 1.265 µM) was 1.07.
